What was measured:
CASOB (Sicklepod) = experiment: Preemergence herbicidal evaluation; assay type: in vivo, Cassia obtusifolia; settings: rated 4-5 weeks after treatment
Outline: (§1)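 Test compound, dissolved in aqueous acetone, was sprayed over planted soil cups at an equivalent of about 0.0156 to 0.500 kg/ha; seeds had been mixed with potting soil. Greenhouse growth followed, with visual 0-9 scoring of injury at four to five weeks.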

CYPSE (Flatsedge) = experiment: Preemergence weed control under flooded paddy conditions; assay type: in vivo, Cyperus serotinus; settings: rated 3-4 weeks after treatment
Outline: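 Seeds or propagules sown in top 0.5 cm of silt loam soil, flooded 1.5 to 3 cm above surface throughout. Compound in 50/50 v/v aqueous/acetone pipetted into flood water at about 0.0313 to 0.500 kg/ha. Visual 0-9 rating versus control after three to four weeks in greenhouse.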

SETVI (Foxtail, Green) = experiment: Postemergence herbicidal evaluation; assay type: in vivo, Setaria viridis; settings: postemergence
Outline: (§2)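 Compound is applied as a foliar spray to seedlings about two weeks old, formulated in equal parts acetone and water with 0.5% TWEEN 20 and delivered at 40 psi to give about 0.0156–0.500 kg per hectare. Injury is rated visually 0–9 after four to five weeks.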

ECHCG (Barnyardgrass) = experiment: Preemergence herbicidal evaluation; assay type: in vivo, Echinochloa crus-galli; settings: rated 4-5 weeks after treatment
Outline: as §1

[1] = tested on: GLXMAW (Soybean, Williams); experiment: Postemergence herbicidal evaluation; assay type: in vivo, Glycine max, (L.) Merr. cv Williams; settings: postemergence
Outline: as §2

ABUTH (Velvetleaf) [2] = experiment: Preemergence herbicidal evaluation; assay type: in vivo, Abutilon theophrasti; settings: rated 4-5 weeks after treatment
Outline: as §1

[3] = tested on: ECHORC (Watergrass (Calif.)); experiment: Postemergence weed control under flooded paddy conditions; assay type: in vivo, Echinochloa oryzoides; settings: postemergence weeds, 3-4 weeks after treatment
Outline: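 Flood-water application, about 0.0313–0.500 kg/ha a.i. in aqueous/acetone 50/50 v/v; water depth 1.5–3 cm throughout. Weeds 3–5 cm, rice 1.5–2.5 leaf. Greenhouse; 0–9 visual rating vs control at 3–4 wk.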

CYPIR (Rice Flatsedge) = experiment: as above; assay type: in vivo, Cyperus iria; settings: postemergence weeds, 3-4 weeks after treatment
Excerpt: Results of herbicide evaluation are expressed on a rating scale (0-9). The scale is based upon a visual observation of plant stand, vigor, malformation, size, chlorosis and overall plant appearance as compared with a control.
Plastic containers containing weeds which are 3 to 5 cm tall and rice seedlings at the 1.5 to 2.5 leaf stage are flooded with water. The water is maintained at 1.5 to 3 cm above the soil surface for the duration of the experiment. Test compounds are applied as aqueous/ acetone mixtures 50/50 v/v directly into the flood water to provide the equivalent of about 0.0313 to 0.500 kg/ha of active ingredient. The treated containers are placed on greenhouse benches and cared for in accordance with conventional greenhouse procedures. Three to four weeks after treatment, the test is terminated and each container is examined and herbicidal effect rated according to the rating system provided in Example 37. The compounds evaluated are reported by compound number given in Example 37.

[4] = tested on: ECHORC (Watergrass (Calif.)); experiment: Preemergence weed control under flooded paddy conditions; assay type: in vivo, Echinochloa oryzoides; settings: rated 3-4 weeks after treatment
Outline: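 First, seeds or propagules go into the top 0.5 cm of silt loam; next, water is held 1.5 to 3 cm over the soil; then compound (50/50 acetone/water) is pipetted into it at about 0.0313 to 0.500 kg/ha; finally plants are rated visually 0-9 after three to four weeks.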

AMBEL (Ragweed, Common) = experiment: Preemergence herbicidal evaluation; assay type: in vivo, Ambrosia artemisifolia; settings: rated 4-5 weeks after treatment
Outline: as §1

ABUTH (Velvetleaf) [5] = experiment: Postemergence herbicidal evaluation; assay type: in vivo, Abutilon theophrasti; settings: postemergence
Outline: as §2

ZEAMX (Corn, Field) = experiment: Postemergence herbicidal evaluation; assay type: in vivo, Zea mays; settings: postemergence
Outline: as §2

O=C1CSC(=Nc2cc(N3C(=O)C4=C(CCCC4)C3=O)c(F)cc2Cl)N1c1ccccc1 [Compound 3, N-{4-chloro-2-fluoro-5-[(4-oxo-3-phenyl-2-thiazolidinylidene)amino]phenyl}-1-cyclohexene-1,2-dicarboximide]
4.0: ECHCG preemergence herbicidal rating (ECHCG (Barnyardgrass); rate 0.2500 kg/ha) | GLXMAW herbicidal rating ([1]; rate 0.1250 kg/ha) | GLXMAW herbicidal rating ([1]; rate 0.2500 kg/ha) | Herbicidal rating ECHORC ([4]; 0.5000 kg/ha)
0.5: Herbicidal rating CYPIR (CYPIR (Rice Flatsedge); rate 0.5000 kg/ha)
2.5: GLXMAW herbicidal rating ([1]; rate 0.0157 kg/ha)
1.0: Herbicidal rating ECHORC ([3]; rate 0.2500 kg/ha)
3.5: GLXMAW herbicidal rating ([1]; rate 0.0313 kg/ha) | ZEAMX herbicidal rating (ZEAMX (Corn, Field); rate 0.2500 kg/ha) | ZEAMX herbicidal rating (ZEAMX (Corn, Field); rate 0.5000 kg/ha)
6.0: ECHCG preemergence herbicidal rating (ECHCG (Barnyardgrass); rate 0.5000 kg/ha) | ABUTH preemergence herbicidal rating (ABUTH (Velvetleaf) [2]; rate 0.5000 kg/ha) | ABUTH herbicidal rating (ABUTH (Velvetleaf) [5]; rate 0.0157 kg/ha) | ABUTH herbicidal rating (ABUTH (Velvetleaf) [5]; rate 0.0313 kg/ha) | ABUTH herbicidal rating (ABUTH (Velvetleaf) [5]; rate 0.0625 kg/ha) | ABUTH herbicidal rating (ABUTH (Velvetleaf) [5]; rate 0.2500 kg/ha)
4.5: GLXMAW herbicidal rating ([1]; rate 0.5000 kg/ha)
3.0: GLXMAW herbicidal rating ([1]; rate 0.0625 kg/ha) | ZEAMX herbicidal rating (ZEAMX (Corn, Field); rate 0.0157 kg/ha) | ZEAMX herbicidal rating (ZEAMX (Corn, Field); rate 0.0313 kg/ha) | ZEAMX herbicidal rating (ZEAMX (Corn, Field); rate 0.0625 kg/ha) | ZEAMX herbicidal rating (ZEAMX (Corn, Field); rate 0.1250 kg/ha)
9.0: ABUTH herbicidal rating (ABUTH (Velvetleaf) [5]; rate 0.1250 kg/ha) | ABUTH herbicidal rating (ABUTH (Velvetleaf) [5]; rate 0.5000 kg/ha)
2.0: CASOB preemergence herbicidal rating (CASOB (Sicklepod); rate 0.5000 kg/ha) | ECHCG preemergence herbicidal rating (ECHCG (Barnyardgrass); rate 0.1250 kg/ha) | ABUTH preemergence herbicidal rating (ABUTH (Velvetleaf) [2]; rate 0.0625 kg/ha) | ABUTH preemergence herbicidal rating (ABUTH (Velvetleaf) [2]; rate 0.1250 kg/ha) | Herbicidal rating ECHORC ([3]; rate 0.5000 kg/ha) | Herbicidal rating ECHORC ([4]; 0.2500 kg/ha) | AMBEL preemergence herbicidal rating (AMBEL (Ragweed, Common); rate 0.1250 kg/ha) | AMBEL preemergence herbicidal rating (AMBEL (Ragweed, Common); rate 0.2500 kg/ha)
7.0: AMBEL preemergence herbicidal rating (AMBEL (Ragweed, Common); rate 0.5000 kg/ha)
0.0: CASOB preemergence herbicidal rating (CASOB (Sicklepod); rate 0.0313 kg/ha) | CASOB preemergence herbicidal rating (CASOB (Sicklepod); rate 0.0625 kg/ha) | CASOB preemergence herbicidal rating (CASOB (Sicklepod); rate 0.1250 kg/ha) | CASOB preemergence herbicidal rating (CASOB (Sicklepod); rate 0.2500 kg/ha) | Herbicidal rating CYPSE (CYPSE (Flatsedge); 0.0625 kg/ha) | Herbicidal rating CYPSE (CYPSE (Flatsedge); 0.1250 kg/ha) | Herbicidal rating CYPSE (CYPSE (Flatsedge); 0.2500 kg/ha) | Herbicidal rating CYPSE (CYPSE (Flatsedge); 0.5000 kg/ha) | SETVI herbicidal rating (SETVI (Foxtail, Green); rate 0.0157 kg/ha) | SETVI herbicidal rating (SETVI (Foxtail, Green); rate 0.0313 kg/ha) | SETVI herbicidal rating (SETVI (Foxtail, Green); rate 0.0625 kg/ha) | SETVI herbicidal rating (SETVI (Foxtail, Green); rate 0.1250 kg/ha) | SETVI herbicidal rating (SETVI (Foxtail, Green); rate 0.2500 kg/ha) | SETVI herbicidal rating (SETVI (Foxtail, Green); rate 0.5000 kg/ha) | ECHCG preemergence herbicidal rating (ECHCG (Barnyardgrass); rate 0.0313 kg/ha) | ECHCG preemergence herbicidal rating (ECHCG (Barnyardgrass); rate 0.0625 kg/ha) | ABUTH preemergence herbicidal rating (ABUTH (Velvetleaf) [2]; rate 0.2500 kg/ha) | Herbicidal rating ECHORC ([3]; rate 0.0625 kg/ha) | Herbicidal rating ECHORC ([3]; rate 0.1250 kg/ha) | Herbicidal rating CYPIR (CYPIR (Rice Flatsedge); rate 0.0625 kg/ha) | Herbicidal rating CYPIR (CYPIR (Rice Flatsedge); rate 0.1250 kg/ha) | Herbicidal rating CYPIR (CYPIR (Rice Flatsedge); rate 0.2500 kg/ha) | Herbicidal rating ECHORC ([4]; 0.0625 kg/ha) | Herbicidal rating ECHORC ([4]; 0.1250 kg/ha) | AMBEL preemergence herbicidal rating (AMBEL (Ragweed, Common); rate 0.0313 kg/ha) | AMBEL preemergence herbicidal rating (AMBEL (Ragweed, Common); rate 0.0625 kg/ha)

— patent US20020137929A1, “1 - (3-heterocyclylphenyl) isothiourea, -isourea, -guanidine and -amidine herbicidal agents” (Intellectual Property Department, BASF Aktiengesellschaft, priority 1998, published 2002)
